Results from patent publication US6576612B1, “Antitumor therapy comprising distamycin derivatives” (Pharmacia Italia S.p.A., priority 2000, dated 2003).

System: solid tumors
Assay: Phase I pharmacological trial, iv single administration every three weeks
Assay type: in vivo, patients
Settings: one patient suffering from gastrointestinal sarcoma, dose level 5.1 mg/m^2, iv infusion
Experimental: A phase I pharmacological trial was carried out to investigate the iv administration of the title compound given as a single administration every three weeks to patients with solid tumors.
The starting dose of 0.85 mg/m^2 was initially escalated in an accelerated design (100% dose increase, 1 patient/dose level) and then by a conventional dose escalation in 3-6 patient cohorts. 11 patients have been entered so far and 25 cycles have been evaluated for toxicity at dose levels of 0.85, 1.7, 3.4, 5.1 and 7.5 mg/m^2.

For `C=C(Br)C(=O)Nc1cc(C(=O)Nc2cc(C(=O)Nc3cc(C(=O)Nc4cc(C(=O)NCCNC(=N)N)n(C)c4)n(C)c3)n(C)c2)n(C)c1.Cl` [PNU 166196, N-(5-{[(5-{[(5-{[(2-{[amino(imino)methyl]amino}ethyl)amino]carbonyl}-1-methyl-1H-pyrrol-3-yl)amino]carbonyl}-1-methyl-1H-pyrrol-3-yl)amino]carbonyl}-1-methyl-1H-pyrrol-3-yl)-4-[(2-bromoacryloyl)amino]-1-methyl-1H-pyrrole-2-carboxamide hydrochloride], the tumor response was “partial response”.
